From patent publication US20090012118A1, “Kynurenic Acid Amide Derivatives as Nr2b Receptor Antagoni” (priority 2004, published 2009)
pIC50: −log10 of the molar value. Like-named read-outs stand apart in the source and are kept apart here.

Tests used:
[1] = tested on: NMRI mice; assay: Mouse formalin test (second phase, licking/biting time); format: in vivo; settings: 15 min before formalin, licking time 20-25 min after formalin; for ED50: Mus musculus, po; for ED50 in mouse formalin test: p.o.
Protocol: Injection of diluted formalin into the hind paw of rats or mice is known to elicit a biphasic pain-related behavior measured as time spent by licking/biting of the injured paw. The second phase is generally defined as pain related events detected in the 15-60 min. time interval after formalin injection. It is known that NMDA receptors are involved in the second phase of response to formalin injection and this behavioral response is sensitive to blockade of NMDA receptors [Dickenson, A. and Besson J.-M. (Editors): Chapter 1, pp. 6-7: Animal models of Analgesia; and Chapter 8, pp. 180-183: Mechanism of Central Hypersensitivity: Excitatory Amino Acid Mechanisms and Their Control—In Pharmacology of Pain. Springer-Verlag (Berlin) 1997.] Therefore, we used the second phase of formalin test to characterize the efficacy of compounds in vivo. Inhibition of the second phase of response is considered to indicate an analgesic effect against chemically-induced persistent pain [Hunskaar, S., et al.: Formalin Test in Mice, a Useful Technique for Evaluating Mild Analgesics, Journal of Neuroscience Methods, 14 (1985) 69-76.]
Male albino NMRI mice (20-25 g) were used. Prior to the experiment any solid food was withdrawn for approx. 16 hours but the animals had free access to 20% glucose solution. The animals were allowed 1 hour acclimatization period in a glass cylinder (cc. 15 cm in diameter), then moved to an identical cylinder with a mirror placed behind to facilitate observation. The test substances were suspended in 5% tween-80 (10 ml per kg body weight). and administered orally by gavage 15 min before the formalin injection (20 μl of 1% formalin in 0.9% saline injected subcutaneously into the dorsal surface of the right hind paw). The time spent by licking and biting of the injected paw was measured from 20 to 25 min. after the formalin injection.

[2] = target: T1, NR1-3/NR2A NMDA receptor (Homo sapiens, UniProt Q05586+Q12879); assay: Functional NMDA antagonism, fluorimetric intracellular calcium measurement on HEK293 cells expressing NR1-3/NR2A; format: cell-based; set-up: NR1-3/NR2A % inhibition: dose or concentration left out as unconfirmed; settings: for inhibition at 10 µM: reference compounds; for inhibition at 15 µM: NMDA evoked calcium rise
T1 construct: expressed in transfected cells
Protocol: (§1) (2003)]. […] Compounds were tested for their inhibitory action on NMDA evoked cytosolic calcium elevations in fluorescent calcium measurements. Studies were performed 48-72 h after addition of the inducing agent. Ketamine (500 μM) was also present during the induction in order to prevent cytotoxicity.
(§2) Since NMDA receptors are known to be permeable to calcium ions upon excitation, the extent of NMDA receptor activation, and its inhibition by functional antagonists can be characterized by measuring the rise in the intracellular calcium concentration following agonist (NMDA) application onto the cells. Since there is very high sequence homology between rat and human NMDA receptors (99, 95, 97% for NR1, NR2A, and NR2B subunits, respectively), it is believed that there is little, if any, difference in their pharmacological sensitivity.
(§3) The intracellular calcium measurements are carried out on HEK293 cells expressing NR1a and NR2B or NR2A NMDA receptor subunits. The cells are plated onto standard 96-well microplates and the cultures are maintained in an atmosphere of 95% air −5% CO2 at 37° C. until testing.
(§4) The cells are loaded with a fluorescent Ca^2+-sensitive dye, Fluo-4/AM (2-2.5 μM) prior to testing. Loading is stopped by washing twice with the solution used also during the measurement (140 mM NaCl, 5 mM KCl, 2 mM CaCl2, 5 mM HEPES [4-(2-hydroxyethyl)-1-piperazineethane-sulfonic acid], 5 mM HEPES-Na, 20 mM glucose, 10 μM glycine, pH=7.4). Then the test compound dissolved in the above solution (90 μl/well) is added. Intracellular calcium measurements are carried out with a plate reader fluorimeter. A rise in Fluo-4-fluorescence that reflects the intracellular calcium concentration is induced by application of 200 μM NMDA. Inhibitory potency of the test compound is assessed by measuring the reduction in the calcium elevation in the presence of different concentrations of the compound.
(§5) Inhibitory potency of a compound at a single concentration point is expressed as percent inhibition of the control NMDA response. For NR1a/NR2B expressing cells concentration-inhibition curves are produced. Sigmoidal concentration-inhibition curves are fitted over the data and IC50 values are defined as the concentration that produces half of the maximal inhibition that could be achieved with the compound. Mean IC50 values are derived from at least three independent experiments. For NR1-3/NR2A expressing cells antagonism of NMDA induced rise in intracellular calcium concentration by compounds of the present invention and reference compounds was tested at 10 and 15 microM concentration, respectively.

[3] = target: T2, NR1a/NR2B NMDA receptor (Rattus norvegicus, UniProt P35439+Q00960); assay: Functional NMDA antagonism, fluorimetric intracellular calcium measurement on HEK293 cells expressing NR1a/NR2B; format: cell-based
T2 construct: expressed in transfected cells
Protocol: Compounds were tested for their inhibitory action on NMDA evoked cytosolic calcium elevations in fluorescent calcium measurements. Studies were performed 48-72 h after addition of the inducing agent. Ketamine (500 μM) was also present during the induction in order to prevent cytotoxicity.
Since NMDA receptors are known to be permeable to calcium ions upon excitation, the extent of NMDA receptor activation, and its inhibition by functional antagonists can be characterized by measuring the rise in the intracellular calcium concentration following agonist (NMDA) application onto the cells.
The intracellular calcium measurements are carried out on HEK293 cells expressing NR1a and NR2B or NR2A NMDA receptor subunits.
as §4, with “Loading” for “The cells are loaded with a fluorescent Ca^2+-sensitive dye, Fluo-4/AM (2-2.5 μM) prior to testing. Loading”
as §5

[4] = tested on: NMRI mice; assay: Mouse formalin test (second phase, licking/biting time); format: in vivo
[5] = target: T3, NR1-3/NR2A NMDA receptor (Homo sapiens, UniProt Q12879); assay: Functional NMDA antagonism, fluorimetric intracellular calcium measurement on HEK293 cells expressing NR1-3/NR2A; format: cell-based; set-up: NR1-3/NR2A % inhibition: dose or concentration left out as unconfirmed; settings: reference compounds
T3 construct: expressed in transfected cells
Protocol: as §1, §2, §3, §4, §5

[6] = HEK293 cells expressing NR1a/NR2B, reference compounds, read-out: NR1a/NR2B IC50
[7] = HEK293 cells expressing NR1a/NR2B, 200 μM NMDA evoked calcium rise, compounds of the invention, read-out: NR1a/NR2B IC50

T2 sequence (Q00960 27-1482, other chains not shown): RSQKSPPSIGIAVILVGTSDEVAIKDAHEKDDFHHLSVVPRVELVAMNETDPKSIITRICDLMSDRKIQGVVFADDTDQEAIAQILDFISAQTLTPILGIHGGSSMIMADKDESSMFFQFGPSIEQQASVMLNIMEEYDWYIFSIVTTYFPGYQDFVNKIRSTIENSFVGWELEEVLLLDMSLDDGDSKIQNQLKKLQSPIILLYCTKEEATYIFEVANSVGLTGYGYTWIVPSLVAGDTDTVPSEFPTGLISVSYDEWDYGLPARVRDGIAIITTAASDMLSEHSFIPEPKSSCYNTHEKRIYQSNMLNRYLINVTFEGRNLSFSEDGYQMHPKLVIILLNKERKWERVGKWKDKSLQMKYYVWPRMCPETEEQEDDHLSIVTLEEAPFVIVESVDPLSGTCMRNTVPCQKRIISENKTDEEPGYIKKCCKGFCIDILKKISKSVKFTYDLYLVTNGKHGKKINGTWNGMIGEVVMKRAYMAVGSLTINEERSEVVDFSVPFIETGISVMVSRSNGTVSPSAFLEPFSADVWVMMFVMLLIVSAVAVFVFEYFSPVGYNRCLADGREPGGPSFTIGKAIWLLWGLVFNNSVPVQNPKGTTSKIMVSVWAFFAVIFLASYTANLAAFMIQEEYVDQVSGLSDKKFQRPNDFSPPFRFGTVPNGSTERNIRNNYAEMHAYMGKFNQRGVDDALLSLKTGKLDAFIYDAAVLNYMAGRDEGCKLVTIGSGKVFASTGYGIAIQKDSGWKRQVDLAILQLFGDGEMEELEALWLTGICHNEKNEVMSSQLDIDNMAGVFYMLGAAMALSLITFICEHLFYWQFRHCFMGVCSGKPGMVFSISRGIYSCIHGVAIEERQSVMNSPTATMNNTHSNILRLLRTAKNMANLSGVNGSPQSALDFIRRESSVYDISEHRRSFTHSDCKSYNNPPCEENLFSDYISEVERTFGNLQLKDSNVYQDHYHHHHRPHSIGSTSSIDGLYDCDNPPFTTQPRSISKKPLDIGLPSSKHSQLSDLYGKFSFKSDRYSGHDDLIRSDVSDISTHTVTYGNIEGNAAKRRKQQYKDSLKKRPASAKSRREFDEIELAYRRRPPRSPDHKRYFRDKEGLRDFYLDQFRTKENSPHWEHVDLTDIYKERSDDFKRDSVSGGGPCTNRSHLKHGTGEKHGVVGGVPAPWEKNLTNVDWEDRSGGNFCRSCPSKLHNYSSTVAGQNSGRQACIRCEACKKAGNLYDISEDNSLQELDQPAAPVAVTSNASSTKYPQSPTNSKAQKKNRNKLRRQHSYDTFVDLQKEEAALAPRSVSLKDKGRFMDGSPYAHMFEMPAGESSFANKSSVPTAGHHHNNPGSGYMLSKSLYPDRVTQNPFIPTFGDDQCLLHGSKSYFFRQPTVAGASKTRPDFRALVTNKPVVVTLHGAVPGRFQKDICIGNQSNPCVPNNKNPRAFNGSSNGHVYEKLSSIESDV
T1 sequence (Q12879 23-1464, other chains not shown): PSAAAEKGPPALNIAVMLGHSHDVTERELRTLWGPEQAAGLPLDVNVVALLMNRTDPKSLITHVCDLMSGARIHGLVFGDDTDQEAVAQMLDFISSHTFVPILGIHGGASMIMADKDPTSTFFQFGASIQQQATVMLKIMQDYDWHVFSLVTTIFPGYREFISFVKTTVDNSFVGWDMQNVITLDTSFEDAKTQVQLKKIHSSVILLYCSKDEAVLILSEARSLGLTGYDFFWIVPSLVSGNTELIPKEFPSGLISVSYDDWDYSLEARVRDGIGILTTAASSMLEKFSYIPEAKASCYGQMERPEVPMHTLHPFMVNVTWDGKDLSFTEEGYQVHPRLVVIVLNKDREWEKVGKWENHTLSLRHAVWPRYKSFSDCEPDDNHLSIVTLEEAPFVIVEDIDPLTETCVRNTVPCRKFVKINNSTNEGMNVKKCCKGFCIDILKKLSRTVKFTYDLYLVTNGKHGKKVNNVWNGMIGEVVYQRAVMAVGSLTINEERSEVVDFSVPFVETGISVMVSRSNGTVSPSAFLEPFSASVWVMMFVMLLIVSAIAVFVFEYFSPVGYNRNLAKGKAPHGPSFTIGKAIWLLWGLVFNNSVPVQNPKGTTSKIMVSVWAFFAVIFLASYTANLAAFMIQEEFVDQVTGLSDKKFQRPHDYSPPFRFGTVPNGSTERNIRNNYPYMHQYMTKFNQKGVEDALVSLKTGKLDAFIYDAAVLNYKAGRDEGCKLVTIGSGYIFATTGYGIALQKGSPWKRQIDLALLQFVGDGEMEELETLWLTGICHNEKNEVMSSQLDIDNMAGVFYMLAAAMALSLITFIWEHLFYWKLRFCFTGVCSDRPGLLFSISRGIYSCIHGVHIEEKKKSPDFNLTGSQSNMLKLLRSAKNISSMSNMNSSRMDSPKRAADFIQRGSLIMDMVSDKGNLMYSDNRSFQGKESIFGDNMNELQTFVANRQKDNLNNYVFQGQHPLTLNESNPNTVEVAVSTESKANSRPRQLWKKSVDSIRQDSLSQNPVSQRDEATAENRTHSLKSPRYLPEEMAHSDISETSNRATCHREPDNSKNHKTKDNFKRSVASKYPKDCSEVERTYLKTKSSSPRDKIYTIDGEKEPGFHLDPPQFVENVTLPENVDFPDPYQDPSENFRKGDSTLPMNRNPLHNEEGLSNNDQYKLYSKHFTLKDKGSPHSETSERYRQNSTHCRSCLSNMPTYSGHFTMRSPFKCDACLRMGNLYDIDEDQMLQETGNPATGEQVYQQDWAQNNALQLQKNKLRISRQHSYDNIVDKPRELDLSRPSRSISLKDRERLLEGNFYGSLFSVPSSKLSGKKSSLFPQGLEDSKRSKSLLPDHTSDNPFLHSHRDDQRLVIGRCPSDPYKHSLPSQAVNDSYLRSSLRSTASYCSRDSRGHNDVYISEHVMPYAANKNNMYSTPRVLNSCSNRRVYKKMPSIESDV
T3 sequence (Q12879 23-1464, other chains not shown): as above

SMILES	inhibition at 15 µM [2] [%]	pIC50 [3, 7]	ED50 [1] [mg/kg]	further results
O=c1[nH]c2ccc([S+]([O-])CCN3CCC(Cc4ccc(F)cc4)CC3)cc2o1 (centres unmarked) [CI-1041, 6-{2-[4-(4-fluoro-benzyl)-piperidin-1-yl]-ethanesulfinyl}-3H-benzooxazol-2-one, reference compound]	–	–	2.4	inhibition at 10 µM [2]: 21%; pIC50 [3]: 8.08
C[C@@H]([C@@H](O)c1ccc(O)cc1)N1CCC(O)(c2ccccc2)CC1 [CP 101,606, (1S,2S)-1-(4-hydroxyphenyl)-2-(4-hydroxy-4-phenylpiperidine-1-yl)-1-propanol, reference compound]	–	–	> 20	inhibition at 10 µM [2]: 2.5%; ED50 ([4]; sc): > 20 mg/kg
Cc1ccc(CC2(O)CCN(CCOc3ccc(O)cc3)CC2)cc1 [Co-101244, 1-[2-(4-hydroxyphenoxy)ethyl]-4-hydroxy-4-(4-methylbenzyl)piperidine, reference compound]	–	–	–	ED50 in mouse formalin test [1]: inactive; inhibition at 10 µM [2]: -8.7%; pIC50 [3, 6]: 8.32; ED50 ([4]; ip): 5.9 mg/kg
Oc1ccc(OCCN2CCC(Cc3ccc(F)cc3)CC2)cc1 [Co-111103, 1-[2-(4-hydroxyphenoxy)ethyl]-4-(4-fluorobenzyl)piperidine, reference compound]	–	–	> 20	–
O=C(CCN1CCC(Cc2ccc(F)cc2)CC1)c1ccc2[nH]c(=O)oc2c1 [EMD 95885, reference compound]	–	–	–	ED50 in mouse formalin test [1]: 3.7 mg/kg; NR1-3/NR2A % inhibition [5]: 0.1%; pIC50 [3, 6]: 7.32
CC(CN1CCC(Cc2ccccc2)CC1)C(O)c1ccc(O)cc1 (stereo not drawn) [Ro 25.6981, R—(R*,S*)-1-(4-hydroxyphenyl)-2-methyl-3-[4-(phenylmethyl)piperidin-1-yl]-1-propanol, reference compound]	–	–	–	ED50 in mouse formalin test [1]: inactive; inhibition at 10 µM [2]: 1%; pIC50 [3]: 7.24; ED50 ([4]; ip): 5.1 mg/kg
CC(C(O)c1ccc(O)cc1)N1CCC(Cc2ccccc2)CC1 (stereo not drawn) [ifenprodil, erythro-2-(4-benzylpiperidino)-1-(4-hydroxyphenyl)-1-propanol, reference compound]	–	–	–	inhibition at 10 µM [2]: -2.7%

Second part, led by results:

inhibition at 15 µM [2] [%]	pIC50 [3, 7]	SMILES	ED50 [1] [mg/kg]	further results
-0.9	8.40	O=C(c1cc(=O)c2cc(O)ccc2[nH]1)N1CCC(Cc2ccc(F)cc2)CC1 [Example 1, 2-[4-(4-Fluoro-benzyl)-piperidine-1-carbonyl]-6-hydroxy-1H-quinolin-4-one]	9.5	–
7	8.43	O=C(c1cc(=O)c2cc(O)ccc2[nH]1)N1CCC(Cc2ccccc2)CC1 [Example 2, 2-(4-Benzyl-piperidine-1-carbonyl)-6-hydroxy-1H-quinolin-4-one]	> 20	–
-2.4	8.42	Cc1ccc(CC2CCN(C(=O)c3cc(=O)c4cc(O)ccc4[nH]3)CC2)cc1 [Example 3, 6-Hydroxy-2-[4-(4-methyl-benzyl)-piperidine-1-carbonyl]-1H-quinolin-4-one]	8.9	–
-5.1	8.72	O=C(c1cc(=O)c2cc(O)ccc2[nH]1)N1CCC(Cc2ccc(Cl)cc2)CC1 [Example 4, 2-[4-(4-Chloro-benzyl)-piperidine-1-carbonyl]-6-hydroxy-1H-quinolin-4-one]	> 20	–
5.7	7.67	O=C(c1cc(=O)c2cc(O)ccc2[nH]1)N1CCC(OCc2ccccc2)CC1 [Example 5, 2-(4-Benzyloxy-piperidine-1-carbonyl)-6-hydroxy-1H-quinolin-4-one]	–	–
14	8.05	O=C(c1cc(=O)c2cc(O)ccc2[nH]1)N1CCC(COc2ccccc2)CC1 [Example 6, 6-Hydroxy-2-(4-Phenoxymethyl-piperidine-1-carbonyl)-1H-quinolin-4-one]	0.46	–
5.1	8.29	O=C(c1cc(=O)c2cc(O)ccc2[nH]1)N1CCC(Oc2ccc(Cl)cc2)CC1 [Example 7]	> 20	–
-3.5	8.48	Cc1ccc(OC2CCN(C(=O)c3cc(=O)c4cc(O)ccc4[nH]3)CC2)cc1 [Example 8, 6-Hydroxy-2-(4-p-tolyloxy-piperidine-1-carbonyl)-1H-quinolin4-one]	8.2	–
-2.1	8.25	O=C(c1cc(=O)c2cc3[nH]c(=O)oc3cc2[nH]1)N1CCC(Cc2ccccc2)CC1 [Example 9, 6-(4-Benzyl-piperidine-1-carbonyl)-1,5-dihydro-oxazolo[4,5-g]quinoline-2,8-dione]	> 20	–
0.2	7.55	O=C(c1cc(=O)c2cc(O)ccc2[nH]1)N1CCC(Oc2ccccc2)CC1 [Example 10, 6-Hydroxy-2-(4-phenoxy-piperidine-1-carbonyl)-1H-quinolin-4-one]	–	–
